Results published in US10875855B2 (priority 2011, dated 2020).
Read-outs that look alike come from different tables or passages of the source.

Columns and labels:
[1] = test system: influenza A virus (A/PR/8/34); experiment: MDCK cytopathic effect (CPE) cell protection assay, ATP detection; type: cell-based; details: Influenza A virus, PR/8, MDCK
[2] = test system: influenza A virus (A/PR/8/34); experiment: microbe, parasite or virus in culture; type: cell-based
[3] = 72 h, Table 1, MDCK cells, A/PR/8/34, 72 hours, 50% cell protection, mean all, class symbol, read-out: MDCK IC50
[4] = Influenza A virus, PR/8, Table 1, mean all, class symbol, read-out: bDNA EC99
[5] = Influenza A virus, PR/8, Table 1, viral RNA 50% of control wells, mean all, class symbol, read-out: bDNA EC50
[6] = Table 2, class symbol in brackets, read-out: MDCK cell IC50 (uM), class
[7] = Table 2, comparison compounds of WO2005/095400, mean value, read-out: MDCK cell IC50

CC(C)(C)N(CC(=O)O)Nc1nc(-c2c[nH]c3ncc(Cl)cc23)ncc1F [Compound 56, 2-(1-(tert-butyl)-2-(2-(5-chloro-1H-pyrrolo[2,3-b]pyridin-3-yl)-5-fluoropyrimidin-4-yl)hydrazinyl)acetic acid] gave an IC50 [1, 3] of less than 0.3 µM, an EC99 [2, 4] of less than 0.3 µM and an EC50 [2, 5] of less than 300 nM.
In the case of CC1(C(CC(=O)O)Nc2nc(-c3c[nH]c4ncc(Cl)cc34)ncc2F)CCCCC1 (racemic) [Compound 83, (+/−)-3-(2-(5-Chloro-1H-pyrrolo[2,3-b]pyridin-3-yl)-5-fluoropyrimidin-4-ylamino)-3-(1-methylcyclohexyl)propanoic acid], the IC50 [1, 3] is reported as 0.3 to 3.3 µM, the EC99 [2, 4] is reported as 0.3 to 3.3 µM and the EC50 [2, 5] is reported as less than 300 nM.
Compound CC1(C(CC(=O)O)Nc2nc(-c3c[nH]c4ncc(F)cc34)c(C#N)cc2F)CCCC1 (stereo not drawn) [Compound 13] has an IC50 [1, 3] of less than 0.3 µM, an EC99 [2, 4] of less than 0.3 µM and an EC50 [2, 5] of less than 300 nM.
CC(C)(C)[C@@H](CS(N)(=O)=O)Nc1nc(-c2c[nH]c3ncc(F)cc23)c(C#N)cc1F [Compound 30, (S)-2-((5-cyano-3-fluoro-6-(5-fluoro-1H-pyrrolo[2,3-b]pyridin-3-yl)pyridin-2-yl)amino)-3,3-dimethylbutane-1-sulfonamide] gave an EC99 [2, 4] of less than 0.3 µM and an EC50 [2, 5] of less than 300 nM.
With CC(C)(C)C(CC(=O)O)Nc1nc(-c2c[nH]c3ncc(F)cc23)ncc1Cl (racemic) [Compound 85, (+/−)-3-((5-chloro-2-(5-fluoro-1H-pyrrolo[2,3-b]pyridin-3-yl)pyrimidin-4-yl)amino)-4,4-dimethylpentanoic acid] the IC50 [1, 3] was 0.3 to 3.3 µM, the EC99 [2, 4] was greater than 3.3 µM and the EC50 [2, 5] was less than 300 nM.
For CC(C)NS(=O)(=O)C[C@@H](Nc1nc(-c2c[nH]c3ncc(F)cc23)ncc1F)C(C)(C)C [Compound 39], the IC50 [1, 3] was less than 0.3 µM, the EC99 [2, 4] was 0.3 to 3.3 µM and the EC50 [2, 5] was less than 300 nM.
CC(C)(C)C(Cc1nc(=O)o[nH]1)Nc1nc(-c2c[nH]c3ncc(F)cc23)ncc1F (racemic) [Compound 65, (+/−)-3-(2-((5-fluoro-2-(5-fluoro-1H-pyrrolo[2,3-b]pyridin-3-yl)pyrimidin-4-yl)amino)-3,3-dimethylbutyl)-1,2,4-oxadiazol-5(2H)-one] showed an IC50 [1, 3] of less than 0.3 µM, an EC99 [2, 4] of 0.3 to 3.3 µM and an EC50 [2, 5] of less than 300 nM.
With CC(C)(C)C(Cc1nn[nH]n1)Nc1nc(-c2c[nH]c3ncc(F)cc23)ncc1F (racemic) [Compound 55, (+/−)-N-(3,3-dimethyl-1-(2H-tetrazol-5-yl)butan-2-yl)-5-fluoro-2-(5-fluoro-1H-pyrrolo[2,3-b]pyridin-3-yl)pyrimidin-4-amine] the IC50 [1, 3] was less than 0.3 µM, the EC99 [2, 4] was 0.3 to 3.3 µM and the EC50 [2, 5] was less than 300 nM.
For CC(C)(C)C(C[S@+]([O-])CC(=O)O)Nc1nc(-c2c[nH]c3ncc(F)cc23)ncc1F (stereo partly drawn) [Compound 64, 2-((S)-2-(5-fluoro-2-(5-fluoro-1H-pyrrolo[2,3-b]pyridin-3-yl)pyrimidin-4-ylamino)-3,3-dimethylbutylsulfinyl)ethanoic acid], the EC99 [2, 4] was greater than 3.3 µM and the EC50 [2, 5] was less than 300 nM.
Work on CC(C)(C)[C@H](CC(=O)O)Nc1nc(-c2c[nH]c3ncc(F)cc23)ncc1F [Compound 4, (S)-3-((5-fluoro-2-(5-fluoro-1H-pyrrolo[2,3-b]pyridin-3-yl)pyrimidin-4-yl)amino)-4,4-dimethylpentanoic acid] yielded an IC50 [1, 3] greater than 3.3 µM, an EC99 [2, 4] greater than 3.3 µM and an EC50 [2, 5] greater than 3300 nM.
Compound CC(C)(C)[C@@H](CC(O)CO)Nc1nc(-c2c[nH]c3ncc(F)cc23)ncc1F (stereo partly drawn) [Compound 70, (4R)-4-((5-fluoro-2-(5-fluoro-1H-pyrrolo[2,3-b]pyridin-3-yl)pyrimidin-4-yl)amino)-5,5-dimethylhexane-1,2-diol] has an IC50 [1, 3] of less than 0.3 µM, an EC99 [2, 4] of 0.3 to 3.3 µM and an EC50 [2, 5] of less than 300 nM.
Clc1cnc2[nH]cc(-c3cccc(NCC4CCCNC4)n3)c2c1 (stereo not drawn) [Compound C2, reference compound] gave an IC50 [1, 6] greater than 3.3 µM and an IC50 [1, 7] greater than 20 µM.
In the case of CCC(C)(C)C(CC(=O)O)Nc1nc(-c2c[nH]c3ncc(F)cc23)ncc1F (stereo not drawn) [Compound 16, 3-((5-fluoro-2-(5-fluoro-1H-pyrrolo[2,3-b]pyridin-3-yl)pyrimidin-4-yl)amino)-4,4-dimethylhexanoic acid], the IC50 [1, 3] is reported as less than 0.3 µM, the EC50 [2, 5] is reported as less than 300 nM and the “bDNA EC99 (uM)” value ([2]; Table 1, mean all, class symbol) is reported as “A (EC99 (mean all)<0.3 μM)”.
CC(C)(C)N(CC(=O)O)Nc1nc(-c2c[nH]c3ncc(F)cc23)ncc1F [Compound 53, 2-(1-(tert-butyl)-2-(5-fluoro-2-(5-fluoro-1H-pyrrolo[2,3-b]pyridin-3-yl)pyrimidin-4-yl)hydrazinyl)acetic acid] showed an IC50 [1, 3] of less than 0.3 µM, an EC99 [2, 4] of 0.3 to 3.3 µM and an EC50 [2, 5] of less than 300 nM.
In the case of CCOC(=O)CC(Nc1nc(-c2c[nH]c3ncc(Cl)cc23)ncc1F)C1(C)CCCCC1 (stereo not drawn) [Compound 82], the IC50 [1, 3] is reported as greater than 3.3 µM, the EC99 [2, 4] is reported as greater than 3.3 µM and the EC50 [2, 5] is reported as greater than 3300 nM.
With CC1([C@H](CC(=O)O)Nc2nc(-c3c[nH]c4ncc(F)cc34)ncc2F)CCCC1 [Compound 15] the IC50 [1, 3] was 0.3 to 3.3 µM, the EC99 [2, 4] was greater than 3.3 µM and the EC50 [2, 5] was 300 to 3300 nM.
O=C(O)CC(Nc1nc(-c2c[nH]c3ncc(F)cc23)ncc1F)C1(C(F)(F)F)CCCC1 (racemic) [Compound 75, (+/−)-3-(5-fluoro-2-(5-fluoro-1H-pyrrolo[2,3-b]pyridin-3-yl)pyrimidin-4-ylamino)-3-(1-(trifluoromethyl)cyclopentyl)propanoic acid] showed an IC50 [1, 3] greater than 3.3 µM, an EC99 [2, 4] greater than 3.3 µM and an EC50 [2, 5] of 300 to 3300 nM.
Compound CC(C)(C)[C@@H](CS(=O)(=O)CC(=O)O)Nc1nc(-c2c[nH]c3ncc(F)cc23)ncc1F [Compound 60, (S)-2-(2-(5-fluoro-2-(5-fluoro-1H-pyrrolo[2,3-b]pyridin-3-yl)pyrimidin-4-ylamino)-3,3-dimethylbutylsulfonyl)ethanoic acid] has an IC50 [1, 3] of less than 0.3 µM, an EC99 [2, 4] greater than 3.3 µM and an EC50 [2, 5] of 300 to 3300 nM.
In the case of CC(C)(C)[C@H](CC(=O)O)Nc1nc(-c2c[nH]c3ncc(Cl)cc23)ncc1F [Compound 3, (S)-3-((2-(5-chloro-1H-pyrrolo[2,3-b]pyridin-3-yl)-5-fluoropyrimidin-4-yl)amino)-4,4-dimethylpentanoic acid], the IC50 [1, 3] is reported as 0.3 to 3.3 µM, the EC99 [2, 4] is reported as greater than 3.3 µM and the EC50 [2, 5] is reported as 300 to 3300 nM.
CCC(C)(C)C(CC(=O)O)Nc1nc(-c2c[nH]c3ncc(F)cc23)c(C#N)cc1F (stereo not drawn) [Compound 18, 3-[[5-cyano-3-fluoro-6-(5-fluoro-1H-pyrrolo[2,3-b]pyridin-3-yl)-2-pyridyl]amino]-4,4-dimethyl-hexanoic acid] gave an IC50 [1, 3] of less than 0.3 µM, an EC99 [2, 4] of less than 0.3 µM and an EC50 [2, 5] of less than 300 nM.
CC(C)(CF)C(CC(=O)O)Nc1nc(-c2c[nH]c3ncc(F)cc23)ncc1F (racemic) [Compound 76, (+/−)-5-Fluoro-3-((5-fluoro-2-(5-fluoro-1H-pyrrolo[2,3-b]pyridin-3-yl)pyrimidin-4-yl)amino)-4,4-dimethylpentanoic acid] gave an IC50 [1, 3] of 0.3 to 3.3 µM, an IC50 ([1]; exemplary data, MDCK cell protection, read-out: IC50) of 0.423 µM and an EC99 [2, 4] of 0.3 to 3.3 µM. The EC50 [2, 5] was less than 300 nM, the EC50 ([2]; Influenza A virus, PR/8, exemplary data, bDNA, read-out: EC50) was 250 nM and the EC99 ([2]; exemplary data, bDNA) was 1.4 µM.
For CC(O)C[C@@H](Nc1nc(-c2c[nH]c3ncc(F)cc23)ncc1F)C(C)(C)C (stereo partly drawn) [Compound 73, (4R)-4-((5-Fluoro-2-(5-fluoro-1H-pyrrolo[2,3-b]pyridin-3-yl)pyrimidin-4-yl)amino)-5,5-dimethylhexan-2-ol], the IC50 [1, 3] was greater than 3.3 µM and the EC50 [2, 5] was 300 to 3300 nM.
COCCNS(=O)(=O)C[C@@H](Nc1nc(-c2c[nH]c3ncc(F)cc23)c(C#N)cc1F)C(C)(C)C [Compound 29, (S)-2-((5-cyano-3-fluoro-6-(5-fluoro-1H-pyrrolo[2,3-b]pyridin-3-yl)pyridin-2-yl)amino)-N-(2-methoxyethyl)-3,3-dimethylbutane-1-sulfonamide] gave an EC99 [2, 4] of 0.3 to 3.3 µM and an EC50 [2, 5] of less than 300 nM.
CN(C)S(=O)(=O)C[C@@H](Nc1nc(-c2c[nH]c3ncc(F)cc23)c(C#N)cc1F)C(C)(C)C [Compound 27, (S)-2-(5-Cyano-3-fluoro-6-(5-fluoro-1H-pyrrolo[2,3-b]pyridin-3-yl)pyridin-2ylamino)-N,N,3,3-tetramethylbutane-1-sulfonamide] was tested, and the EC99 [2, 4] was 0.3 to 3.3 µM and the EC50 [2, 5] was less than 300 nM.
Work on CC(C)(C)[C@@H](CS(=O)(=O)NC1CC1)Nc1nc(-c2c[nH]c3ncc(F)cc23)c(C#N)cc1F [Compound 28, (S)-2-(5-Cyano-3-fluoro-6-(5-fluoro-1H-pyrrolo[2,3-b]pyridin-3-yl)pyridin-2ylamino)-N-cyclopropyl-3,3-dimethylbutane-1-sulfonamide] yielded an EC99 [2, 4] of less than 0.3 µM and an EC50 [2, 5] of less than 300 nM.
CCCNS(=O)(=O)C[C@@H](Nc1nc(-c2c[nH]c3ncc(F)cc23)c(C#N)cc1F)C(C)(C)C [Compound 31, (S)-2-((5-cyano-3-fluoro-6-(5-fluoro-1H-pyrrolo[2,3-b]pyridin-3-yl)pyridin-2-yl)amino)-3,3-dimethyl-N-propylbutane-1-sulfonamide] gave an EC99 [2, 4] of less than 0.3 µM and an EC50 [2, 5] of less than 300 nM.
CC(O)C[C@@H](Nc1nc(-c2c[nH]c3ncc(F)cc23)ncc1F)C(C)(C)C (stereo partly drawn) [Compound 72, (4R)-4-((5-Fluoro-2-(5-fluoro-1H-pyrrolo[2,3-b]pyridin-3-yl)pyrimidin-4-yl)amino)-5,5-dimethylhexan-2-ol] gave an EC99 [2, 4] greater than 3.3 µM.
Clc1cnc2[nH]cc(-c3cccc(NC4CCCCC4)n3)c2c1 [Compound C1, reference compound] gave an IC50 [1, 6] greater than 3.3 µM and an IC50 [1, 7] greater than 20 µM.
CNS(=O)(=O)C[C@@H](Nc1nc(-c2c[nH]c3ncc(F)cc23)c(C#N)cc1F)C(C)(C)C [Compound 26, (S)-2-(5-Cyano-3-fluoro-6-(5-fluoro-1H-pyrrolo[2,3-b]pyridin-3-yl)pyridin-2ylamino)-N,3,3-trimethylbutane-1-sulfonamide] was tested, and the EC99 [2, 4] was less than 0.3 µM and the EC50 [2, 5] was less than 300 nM.
